Test [1] concerns the target T1, DR1=HLA-DR(α1*0101,α1*0101) (Homo sapiens, UniProt P01903+P01911, A100R/D57E/F55L/F60I/F76Y/I96L/L162R/M171V/P40L/Q125E/R42F/V115G/Y59C).
T1 construct: endogenous in cells; host or cells: EBV homozygous human B cell line
Nature of the test: biochemical. It is filed as binding. Conditions: […].

For test [2], the target named is T2, DR3=HLA-DR(α1*0101,α1*0301) (Homo sapiens, UniProt P01903+P01911, A100K/A102G/A103R/A169T/F55Y/I96L/K41T/L162R/M171V/P40S/Q125H/Q178H/Q39Y/R42S/S66N/T106N/T262R/W38E/Y61H).
T2 construct: endogenous in cells; host or cells: STEILIN (EBV homozygous B cell line)
Nature of the test: HLA-DR specific binding assay, DR3.

Test [3] concerns the target T3, DR4=HLA-DR(α1*0101,α1*0401) (Homo sapiens, UniProt P01903+P01911, A100K/A169T/F76Y/I96L/K127E/L162R/M171V/N62H/P40V/Q125Y/R42H/S133A/S149N/S66Y/V115G/V209L/W38E).
T3 construct: endogenous in cells; host or cells: BOLETH (EBV homozygous B cell line)
Put plainly: biochemical. It is filed as binding.

The target of test [4] is T4, DR13=HLA-DR(α1*0101,α1*1301) (Homo sapiens, UniProt P01903+P01911, A100E/A169T/K41T/L162R/M171V/P40S/Q125H/Q178H/Q39Y/Q99D/R42S/S66N/T262R/W38E/Y61H).
T4 construct: endogenous in cells; host or cells: 0206AD (EBV homozygous B cell line)
Nature of the test: HLA-DR specific binding assay, DR13.

Test [5] concerns the target T5, DR15=HLA-DR(α1*0101,α1*1501) (Homo sapiens, UniProt P01903+P01911).
T5 construct: endogenous in cells; host or cells: EBV homozygous human B cell line
Put plainly: HLA-DR specific binding assay, DR15.

Test [6] addresses T6, DRB3=HLA-DR(α1*0101,α3*0101) (Homo sapiens, UniProt P01903+P79483).
T6 construct: endogenous in cells; host or cells: STEILIN or 0206AD (both typed DRB3*0101)
Nature of the test: HLA-DR specific binding assay, DRB3 (DR52).

In test [7] the target is T7, DRB4=HLA-DR(α1*0101,α4*0101) (Homo sapiens, UniProt P01903+P13762, G164S).
T7 construct: endogenous in cells
Nature of the test: HLA-DR specific binding assay, DRB4 (DR53).

The target of test [8] is T8, DRB5=HLA-DR(α1*0101,α5*0101) (Homo sapiens, UniProt P01903+Q30154).
T8 construct: endogenous in cells; host or cells: EBV homozygous human B cell line
Nature of the test: biochemical. It is filed as binding. The following applies: Table V; […]; read-out: IC50 DRB5.

Test [9] addresses T9, DP401=HLA-DP(α1*0101,α1*0401) (Homo sapiens, UniProt P04440+P20036).
T9 sequence (P20036 32-260 limits assumed): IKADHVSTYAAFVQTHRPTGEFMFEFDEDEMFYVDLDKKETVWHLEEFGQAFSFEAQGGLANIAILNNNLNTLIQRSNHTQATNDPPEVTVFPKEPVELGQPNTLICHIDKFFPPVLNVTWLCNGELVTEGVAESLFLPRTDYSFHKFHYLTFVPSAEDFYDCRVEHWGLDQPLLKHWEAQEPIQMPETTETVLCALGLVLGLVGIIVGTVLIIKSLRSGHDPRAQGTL
T9 sequence (P04440 30-258): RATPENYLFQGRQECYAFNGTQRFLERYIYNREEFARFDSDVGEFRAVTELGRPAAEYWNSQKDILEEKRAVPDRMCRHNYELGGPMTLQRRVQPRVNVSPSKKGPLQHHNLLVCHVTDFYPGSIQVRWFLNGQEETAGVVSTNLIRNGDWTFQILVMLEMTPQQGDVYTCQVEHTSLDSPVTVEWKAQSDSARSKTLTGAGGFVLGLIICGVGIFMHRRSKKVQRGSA
Put plainly: biochemical. It is filed as binding.

For test [10], the system named is lymphocytes obtained from HSV-1 infected H-2^d mice. Nature of the test: HSV-primed T-cell responses to gD peptides in HSV-1 infected mice. Conditions: HSV-1 infected H-2^d mice. It counts as cell-based.
Test [11] concerns HLA-DR and HLA-DP molecules. Nature of the test: MHC class II binding assays, panel of twelve HLA class II molecules (number of alleles bound). Conditions: number of the twelve class II MHC alleles bound; title: Threshold 600 nM/5 alleles.

Read-outs that look alike come from different tables or passages of the source.

T6 sequence (P79483 30-266, other chains not shown): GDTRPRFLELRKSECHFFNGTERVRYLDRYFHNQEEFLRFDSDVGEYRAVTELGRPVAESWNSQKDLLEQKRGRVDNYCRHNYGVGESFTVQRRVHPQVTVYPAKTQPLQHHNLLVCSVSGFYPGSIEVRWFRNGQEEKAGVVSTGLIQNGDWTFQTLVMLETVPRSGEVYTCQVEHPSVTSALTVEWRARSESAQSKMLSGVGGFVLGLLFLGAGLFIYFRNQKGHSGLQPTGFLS
T8 sequence (Q30154 30-266, other chains not shown): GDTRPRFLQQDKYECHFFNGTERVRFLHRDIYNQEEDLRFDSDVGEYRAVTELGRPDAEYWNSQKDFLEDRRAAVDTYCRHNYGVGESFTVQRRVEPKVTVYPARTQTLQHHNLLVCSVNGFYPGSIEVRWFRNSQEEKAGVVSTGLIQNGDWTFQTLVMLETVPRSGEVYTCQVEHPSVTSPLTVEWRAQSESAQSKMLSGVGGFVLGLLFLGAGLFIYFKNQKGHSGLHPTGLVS

With `CC[C@H](C)[C@H](NC(=O)[C@@H]1CCCN1C(=O)[C@H](CS)NC(=O)[C@H](C)NC(=O)CNC(=O)[C@H](CC(C)C)NC(=O)[C@H](CO)NC(=O)[C@H](CCCCN)NC(=O)[C@@H](N)CC(N)=O)C(=O)N[C@@H](CCCNC(=N)N)C(=O)N[C@H](C(=O)N[C@@H](CCC(N)=O)C(=O)N1CCC[C@H]1C(=O)N[C@@H](CCCNC(=N)N)C(=O)N[C@@H](Cc1c[nH]c2ccccc12)C(=O)N[C@@H](CC(N)=O)C(=O)N[C@@H](Cc1ccc(O)cc1)C(=O)N[C@@H](Cc1ccc(O)cc1)C(=O)N[C@@H](CC(=O)O)C(=O)N[C@@H](CO)C(=O)N[C@@H](Cc1ccccc1)C(=O)N[C@@H](CO)C(=O)N[C@@H](C)C(=O)N[C@H](C(=O)N[C@@H](CO)C(=O)N[C@@H](CCC(=O)O)C(=O)N[C@@H](CC(=O)O)C(=O)N[C@@H](CC(N)=O)C(=O)N[C@@H](CC(C)C)C(=O)NCC(=O)N[C@@H](Cc1ccccc1)C(=O)N[C@@H](CC(C)C)C(=O)O)C(C)C)[C@@H](C)O` [HSV 33], the IC50 was determined as 53 nM in [1] (Table V, read-out: IC50 DR1); 53 nM in [1] (Class II MHC allele DR1, read-out: IC50, DR1); 66 nM in test [2] (IC50, DR3, Class II MHC allele DR3); 66 nM in test [2] (IC50 DR3, Table V, […]); 6 nM in [3] (Class II MHC allele DR4, read-out: IC50, DR4); 8 nM in test [3] (Table V, […], read-out: IC50 DR4). In addition, the IC50 in test [4] was determined as 160 nM; in test [5], 2 nM; in [6] (IC50, DRD3, Class II MHC allele DRD3 (so in the source)), 226 nM; in test [6] (IC50 DRB3, Table V, […]), 226 nM; in [7], 319 nM; in test [8], 134 nM. Further, the IC50 in test [9] (Class II MHC allele DP401) stood at 83 nM; in test [9] (Table V, […]), 83 nM. For the same molecule, the “immunodominance of epitopes in HSV-primed T-cell responses” value in [10] was “subdominant epitopes”. The molecule also came in with a Range in test [11] of 12.

A word on the IC50: it is the concentration that inhibits the measured activity by half.

The values above are taken from patent publication US20080299140A1, “Immunogenic Composition and Peptide Sequences for Prevention and Treatment of an Hsv Condition” (priority 2002, published 2008).
